Assay results taken from paper doi:10.1101/2020.11.06.371534v1 (biorxiv, 2020).
Structures can show the parent of a compound that is named as a salt.

How the values were obtained:
[1] = molecular target: T1, Porcine pancreatic elastase (PE) (Sus scrofa, UniProt P00772); experiment: microscale thermophoresis, NT-647-NHS labelled enzyme; type: binding
[2] = molecular target: T1, Porcine pancreatic elastase (PE); experiment: chromogenic assay, OD […] nm, non-linear regression; type: biochemical
[3] = molecular target: T1, Porcine pancreatic elastase (PE); experiment: chromogenic assay, OD […] nm; type: biochemical

T1 sequence (P00772 27-266): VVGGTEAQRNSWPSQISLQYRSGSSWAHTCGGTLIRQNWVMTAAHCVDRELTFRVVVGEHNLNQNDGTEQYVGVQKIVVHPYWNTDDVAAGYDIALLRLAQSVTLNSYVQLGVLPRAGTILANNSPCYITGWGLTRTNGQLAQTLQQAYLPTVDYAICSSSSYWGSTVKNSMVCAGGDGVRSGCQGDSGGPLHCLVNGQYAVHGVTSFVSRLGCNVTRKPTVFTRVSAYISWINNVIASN

In the case of `O=c1cc(-c2ccccc2)oc2cc(O)c(O)c(O)c12` [Baicalein, 5,6,7-trihydroxy-2-phenylchromen-4-one], the Kd [1] is reported as 0.0262 µM and the IC50 [2] is reported as 3.53 µM.

`O=c1c(O)c(-c2ccccc2)oc2cc(O)cc(O)c12` [Galangin, 3,5,7-trihydroxy-2-phenylchromen-4-one] showed an inhibition at 100 µM ([3]; read-out: % inhibition at 100 μM) of 23.6%.

Work on `COc1ccc([C@@H]2CC(=O)c3c(O)cc(O)cc3O2)cc1O` [Hesperetin, (2S)-5,7-dihydroxy-2-(3-hydroxy-4-methoxyphenyl)-2,3-dihydrochromen-4-one] yielded an inhibition at 125 µM ([3]; read-out: % inhibition at 125 μM) of 31.5%.

`CC(C)(C)C(=O)Oc1ccc(S(=O)(=O)Nc2ccccc2C(=O)NCC(=O)O)cc1` [Sivelestat sodium salt hydrate, sodium;2-[[2-[[4-(2,2-dimethylpropanoyloxy)phenyl]sulfonylamino]benzoyl]amino]acetate] showed an IC50 [2] of 15.8 µM.
